Results reported in the NIST ThermoML archive (doi:10.1021/je800756r).
Where “and” joins values, the source holds several entries; their conditions need not be identical. Identical values can stand only once. ± gives the expanded uncertainty stated by the source.

Assay: xn = mol fraction of the nth substance listed
Details: Capillary rise

FCF [difluoromethane] + CCC
Details	surface tension liquid-gas
280 K, x2 = 0.01	9.7 ± 0.4 mN/m
280 K, x2 = 0.013	9.4 ± 0.4 mN/m
280 K, x2 = 0.037	9.5 ± 0.4 mN/m
280 K, x2 = 0.07	9 ± 0.4 mN/m
280 K, x2 = 0.087	8.7 ± 0.4 mN/m
280 K, x2 = 0.092	8.4 ± 0.4 mN/m
280 K, x2 = 0.115	8.5 ± 0.4 mN/m
280 K, x2 = 0.12	8.4 ± 0.4 mN/m
280 K, x2 = 0.121	8 ± 0.4 mN/m
280 K, x2 = 0.123	8.2 ± 0.4 mN/m
280 K, x2 = 0.124	8.2 ± 0.4 mN/m
280 K, x2 = 0.131	7.9 ± 0.4 mN/m
280 K, x2 = 0.141	8 ± 0.4 mN/m
280 K, x2 = 0.515	6.4 ± 0.4 mN/m
280 K, x2 = 0.588	6.5 ± 0.4 mN/m
280 K, x2 = 0.605	6.5 ± 0.4 mN/m
280 K, x2 = 0.648	6.8 ± 0.4 mN/m and 6.7 ± 0.4 mN/m
280 K, x2 = 0.662	6.8 ± 0.4 mN/m
280 K, x2 = 0.682	6.8 ± 0.4 mN/m
280 K, x2 = 0.697	7 ± 0.4 mN/m
280 K, x2 = 0.706	7.1 ± 0.4 mN/m
280 K, x2 = 0.729	7.1 ± 0.4 mN/m
280 K, x2 = 0.755	7.4 ± 0.4 mN/m
280 K, x2 = 0.775	7.4 ± 0.4 mN/m
280 K, x2 = 0.813	7.8 ± 0.4 mN/m
280 K, x2 = 0.826	7.8 ± 0.4 mN/m
280 K, x2 = 0.898	8.4 ± 0.4 mN/m
280 K, x2 = 0.931	8.8 ± 0.4 mN/m
280 K, x2 = 0.942	8.9 ± 0.4 mN/m
280 K, x2 = 0.968	9.1 ± 0.4 mN/m
290 K, x2 = 0.002	8.1 ± 0.4 mN/m
290 K, x2 = 0.003	8 ± 0.4 mN/m
290 K, x2 = 0.004	8 ± 0.4 mN/m
290 K, x2 = 0.005	7.9 ± 0.4 mN/m
290 K, x2 = 0.039	7.5 ± 0.4 mN/m
290 K, x2 = 0.065	7.2 ± 0.4 mN/m
290 K, x2 = 0.078	7 ± 0.4 mN/m
290 K, x2 = 0.081	7.2 ± 0.4 mN/m
290 K, x2 = 0.09	7.1 ± 0.4 mN/m
290 K, x2 = 0.095	6.9 ± 0.4 mN/m
290 K, x2 = 0.097	6.9 ± 0.4 mN/m
290 K, x2 = 0.114	6.6 ± 0.4 mN/m
290 K, x2 = 0.143	6.5 ± 0.4 mN/m
290 K, x2 = 0.156	6.3 ± 0.4 mN/m
290 K, x2 = 0.175	5.9 ± 0.4 mN/m
290 K, x2 = 0.185	5.9 ± 0.4 mN/m
290 K, x2 = 0.198	6 ± 0.4 mN/m
290 K, x2 = 0.209	5.7 ± 0.4 mN/m
290 K, x2 = 0.485	5 ± 0.4 mN/m
290 K, x2 = 0.506	4.9 ± 0.4 mN/m
290 K, x2 = 0.525	5 ± 0.4 mN/m
290 K, x2 = 0.539	5.1 ± 0.4 mN/m
290 K, x2 = 0.58	5.1 ± 0.4 mN/m
290 K, x2 = 0.596	5.1 ± 0.4 mN/m
290 K, x2 = 0.604	5.2 ± 0.4 mN/m
290 K, x2 = 0.648	5.6 ± 0.4 mN/m
290 K, x2 = 0.691	5.9 ± 0.4 mN/m
290 K, x2 = 0.768	6.1 ± 0.4 mN/m
290 K, x2 = 0.805	6.4 ± 0.4 mN/m
290 K, x2 = 0.896	7 ± 0.4 mN/m
290 K, x2 = 0.917	7.3 ± 0.4 mN/m
290 K, x2 = 0.925	7.4 ± 0.4 mN/m
290 K, x2 = 0.975	7.7 ± 0.4 mN/m
290 K, x2 = 0.986	7.9 ± 0.4 mN/m
290 K, x2 = 0.999	8.1 ± 0.4 mN/m
300 K, x2 = 0.02	6 ± 0.4 mN/m
300 K, x2 = 0.045	5.7 ± 0.4 mN/m
300 K, x2 = 0.087	5.4 ± 0.4 mN/m
300 K, x2 = 0.11	5.2 ± 0.4 mN/m
300 K, x2 = 0.12	5 ± 0.4 mN/m
300 K, x2 = 0.124	5 ± 0.4 mN/m
300 K, x2 = 0.149	4.6 ± 0.4 mN/m
300 K, x2 = 0.154	4.7 ± 0.4 mN/m
300 K, x2 = 0.22	4.1 ± 0.4 mN/m
300 K, x2 = 0.573	4 ± 0.4 mN/m
300 K, x2 = 0.682	4.5 ± 0.4 mN/m
300 K, x2 = 0.692	4.7 ± 0.4 mN/m
300 K, x2 = 0.703	4.7 ± 0.4 mN/m
300 K, x2 = 0.744	4.9 ± 0.4 mN/m
300 K, x2 = 0.748	5.1 ± 0.4 mN/m
300 K, x2 = 0.761	5 ± 0.4 mN/m
300 K, x2 = 0.771	5.1 ± 0.4 mN/m
300 K, x2 = 0.782	5.1 ± 0.4 mN/m
300 K, x2 = 0.79	5.2 ± 0.4 mN/m
300 K, x2 = 0.824	5.5 ± 0.4 mN/m
300 K, x2 = 0.834	5.4 ± 0.4 mN/m
300 K, x2 = 0.838	5.5 ± 0.4 mN/m
300 K, x2 = 0.852	5.6 ± 0.4 mN/m
300 K, x2 = 0.865	5.8 ± 0.4 mN/m
300 K, x2 = 0.881	5.8 ± 0.4 mN/m
300 K, x2 = 0.893	6 ± 0.4 mN/m
300 K, x2 = 0.897	5.9 ± 0.4 mN/m
300 K, x2 = 0.911	6 ± 0.4 mN/m
300 K, x2 = 0.918	6.2 ± 0.4 mN/m
300 K, x2 = 0.938	6.4 ± 0.4 mN/m
300 K, x2 = 0.982	6.8 ± 0.4 mN/m
300 K, x2 = 0.994	6.7 ± 0.4 mN/m
300 K, x2 = 0.999	6.9 ± 0.4 mN/m
